From US4562199A, “Imidazole derivatives, compositions and use” (priority 1983, dated 1985)
Counter-ions that a name gives are not always drawn.

Each compound was assayed against T1, Thromboxane A2 Synthetase (Equus caballus, UniProt A0A9L0T8T9) (assay: Determination of Thromboxane A2 Synthetase Inhibitory Activity). Conditions: lysed platelets from horse PRP; [1-14C]-arachidonic acid; 3 min at 37° C.; Tris buffer pH 7.5; read-out: ED50 (concentration of active compound required to reduce the enzyme activity by 50%) (converted).
T1 construct: [1-14C]arachidonic acid substrate, TXB2 by TLC
T1 sequence (A0A9L0T8T9 2-534): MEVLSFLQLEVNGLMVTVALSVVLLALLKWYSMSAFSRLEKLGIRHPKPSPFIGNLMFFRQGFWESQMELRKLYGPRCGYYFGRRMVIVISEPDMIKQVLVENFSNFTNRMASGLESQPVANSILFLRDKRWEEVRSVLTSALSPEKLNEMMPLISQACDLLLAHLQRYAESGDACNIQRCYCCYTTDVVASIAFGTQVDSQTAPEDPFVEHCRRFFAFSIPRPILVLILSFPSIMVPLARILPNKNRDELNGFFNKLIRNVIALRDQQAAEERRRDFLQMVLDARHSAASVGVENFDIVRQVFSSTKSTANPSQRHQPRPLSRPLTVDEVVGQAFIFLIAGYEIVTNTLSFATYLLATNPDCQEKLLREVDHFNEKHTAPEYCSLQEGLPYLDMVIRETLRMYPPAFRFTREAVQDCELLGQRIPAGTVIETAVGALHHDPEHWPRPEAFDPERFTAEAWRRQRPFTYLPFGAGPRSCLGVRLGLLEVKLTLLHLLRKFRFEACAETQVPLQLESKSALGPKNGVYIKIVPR
Type: biochemical
Method: The active compound was dissolved in a suitable solvent at a concentration of 5 mg/ml, and 20 μl added to 0.8 ml of 100 mM Tris buffer (pH 7.5).
The platelets from 5 ml of horse PRP were centrifuged and resuspended in 100 μl of Tris buffer. After lysis by sonication or freeze thawing, the platelet suspension was added to the solution of active compound and equilibrated for 5 min at room temperature. Then 300 ng (50 nCi) of [1-^14 -C]-arachidonic acid, dissolved in 100 μl Tris buffer, was added and the mixture incubated for 3 min at 37° C.
The reaction was stopped with 50 μl 2N HCl and the product extracted with 1.5 volumes ethyl acetate by whirling for 30 seconds. 1 ml saturated NaCl was added to the aqueous phase to prevent emulsion formation. The organic layer was removed, dried under N2 and the products redissolved in 50 μl chloroform/methanol mixture for quantitative spotting onto a TLC plate, and subsequent analysis.
The plate was developed in chloroform, methanol, acetic acid, water (90:8:1:0.8), dried and then visualised by autoradiography for 2-3 days.
The concentration of active compound required to reduce the enzyme activity by 50% (ED50) was established.

SMILES | IC50
CCOC(=O)/C=C/c1ccc(Cn2ccnc2)c(Cl)c1 [Example 2, Ethyl (E)-3-[3-chloro-4-(imidazol-1-ylmethyl)phenyl]prop-2-enoate] | 1720 nM
O=C(O)c1ccc(Cn2ccnc2)c(Cl)c1 [Example 1, 1-(4-Carboxy-2-chlorobenzyl)imidazole hydrochloride] | 24200 nM
O=C(O)/C=C/c1ccc(Cn2ccnc2)c(Cl)c1 [Example 3, (E)-3-[3-Chloro-4-(imidazol-1-ylmethyl)phenyl]prop-2-enoic acid hydrochloride] | 167 nM

Results, then the compound that gave them:

IC50 | SMILES
41.5 nM | O=C(O)C=Cc1ccc(Cn2ccnc2)c(Br)c1 [Example 6, 3-[3-Bromo-4-(imidazol-1-ylmethyl)phenyl]prop-2-enoic acid hydrochloride hydrate]
1330 nM | O=C(O)c1ccc(C=CCn2ccnc2)cc1Cl [Example 10, 1-[3-(4-Carboxy-3-chlorophenyl)prop-2-enyl]imidazole hydrochloride hemihydrate]
266 nM | O=C(O)CCc1ccc(Cn2ccnc2)c(Cl)c1 [Example 4, 3-[3-Chloro-4-(imidazol-1-ylmethyl)phenyl]propanoic acid hydrochloride]
